One may read the IC50 as the concentration that inhibits the measured activity by half.

One test deals with T1, NK-3 receptor (Cavia porcellus, UniProt P30098).
T1 construct: evaluated in freshly collected guinea pig cerebral cortex; from tissue; host or cells: guinea pig cerebral cortex
T1 sequence (P30098 1-440): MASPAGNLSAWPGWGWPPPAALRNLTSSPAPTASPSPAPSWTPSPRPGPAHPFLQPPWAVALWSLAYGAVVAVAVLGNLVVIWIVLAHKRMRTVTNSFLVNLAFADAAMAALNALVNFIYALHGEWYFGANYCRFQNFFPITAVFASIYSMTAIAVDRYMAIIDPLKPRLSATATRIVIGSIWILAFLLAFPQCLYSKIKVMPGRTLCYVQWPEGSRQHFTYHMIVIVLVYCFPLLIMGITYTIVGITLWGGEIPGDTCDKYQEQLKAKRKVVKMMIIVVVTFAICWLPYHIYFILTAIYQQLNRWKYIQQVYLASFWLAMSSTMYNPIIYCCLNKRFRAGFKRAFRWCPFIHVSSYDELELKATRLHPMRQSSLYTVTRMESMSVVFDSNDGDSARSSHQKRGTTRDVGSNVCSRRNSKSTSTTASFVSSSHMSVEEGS
Nature of the test: Antagonism of iodinated eledoisin binding to NK3 receptor, guinea pig cerebral cortex. The method, then:
ANTAGONISM OF IODINATED TACHYKININ BINDING TO NK1 AND NK2
RECEPTORS BY PUTATIVE ANTAGONISTS
The NK1 receptor affinity of proposed tachykinin antagonists was evaluated in guinea pig lungs (Keystone Biologicals, Cleveland, OH), affinity for the NK2 receptor evaluated in HSKR-1 cells (which are mouse 3T3 fibroblasts expressing the human jejunal NK2 receptor) and NK-3 receptor affinity was evaluated in freshly collected guinea pig cerebral cortex. Tissues or cells were homogenized with a Polytron in 15 volumes of 50 mM Tris-HCl buffer (pH 7.4, 4° C.) and centrifuged. The pellet was resuspended in Tris-HCl buffer and was centrifuged; the pellet was washed twice by resuspension. The final pellet was resuspended at a concentration of 40 mg/ml for tissues (guinea pig lung and cerebral cortex) and 20 mg/ml for cells in incubation buffer and remained at room temperature for at least 15 min prior to use. Receptor binding was initiated by addition of 250 ul membrane preparation in duplicate to 0.1 nM of the following radioligands: ^125 I-Bolton Hunter Lys-3 labeled substance P; ^125 iodohistidyl-1-neurokinin A; and ^125 I-Bolton Hunter labeled Lys-4 eledoisin in a final volume of 500 ul of buffer containing 50 mM Tris-HCl (pH 7.4 at room temperature), 0.1% bovine serum albumin, 2 mM MnCl2, 40 ug/ml bacitracin, 4 μg/ml leupeptin and chymostatin, 1 μM thiorphan and various doses of the putative tachykinin antagonists. Incubations were performed at room temperature for 90 min (NK1 receptor assays) or 2 hr (NK2 and NK3 receptor assays); binding was terminated by addition of 50 mM Tris-HCl buffer (pH 7.4, 4° C.) and filtration under vacuum through GF/B filters presoaked with 0.1% polyethyleneimine (NK1 receptor assays) or 0.5% bovine serum albumin (NK2 and NK3 receptor assays). Filter bound radioactivity was quantitated in a gamma counter. […] Specific binding was calculated by subtracting nonspecific binding from total binding. Competition of iodinated SP, NKA, or eledoisin binding by test compounds or standards was expressed as a percentage of this maximum competition. […]

The subject of another test is NK1 and NK2 receptors. In words: Modulation of respiratory effects produced by capsaicin aerosol in conscious guinea pigs. Type of test: in vivo, guinea pig. The conditions noted are these: for dyspnea onset / maximum pressure increase: capsaicin aerosol; for dyspnea onset / maximum pressure increase / SRE number (coughs/gasps): mean and SEM; for SRE number (coughs/gasps): during 19 min capsaicin exposure; for dyspnea incidence: i.v. 20 min prior to capsaicin aerosol (0.001%). The procedure: In vivo experiments were performed using male Duncan Hartley guinea pigs (250-350g). Changes in conscious breathing patterns were monitored in four animals simultaneously using modified whole body plethysmography consisting of four small plexiglass boxes each connected to a reference box via Validyne DP 45-16 differential pressure transducers. The 4 boxes were equipped with an air supply line (also used for aerosol delivery) and an exhaust air line. Supply and exhaust lines were of the same length and narrow bore and arose from a common supply chamber and vented to a common exhaust chamber. This system was used to ensure that fluctuations in supply air and atmospheric pressure would remain in phase and be eliminated from the net signal by the differential pressure transducers. The analog pressure signals were digitalized via a Data Translation DT2821 A to D board. Data were collected at a rate of 100 samples/second/animal. Each cycle of pressure change was analyzed using the following parameters: rising and falling slope determined between minimum and maximum pressures, the ratio of rising over falling slope, and the magnitude of the change between initial trough pressure and peak cycle pressure. Using these values (and observing the animals) the pressure cycles were characterized into normal breaths, forced exhalations (apparent by abdominal heaving), significant respiratory events (SREs; usually coughs, less often sneezes or gasps which were characterized by transient, extremely large pressure increases which were distinguishable from noise) and movement/noise with a PCAT 286 running a System V UNIX operating system. Dyspnea was defined as a significant, sustained increase in plethysmograph pressure which was associated with an observable shift to labored breathing in the animal.
During the course of a typical experiment in which airway responsiveness to various bronchoconstricting agents was examined, aerosols were delivered for 19 min (0.33 ml/min) using a DeVilbiss Ultraneb 99 ultrasonic nebulizer and animals monitored during this time. Prior to nebulization, 1 min of resting breathing was collected to establish a baseline pressure. […] The vehicle for nebulization of all bronchoconstrictive agents was phosphate buffered saline (pH 7.4) which elicited no respiratory effects itself. Putative tachykinin antagonists were administered either (i.v.) 20 min prior to onset of aerosol exposure or orally 1 hour prior to onset (to guinea pigs after an overnight fast).
Capsaicin aerosol is known to promote release of the tachykinins SP and NKA from sensory nerves in the airways of guinea pigs which may then act upon NK1 and NK2 receptors, respectively to elicit respiratory effects.

Each structure is given as a SMILES string.

Turning to `COc1cc(C(=O)N2CCC(CCN3CCC(C(N)=O)(c4ccccc4)CC3)(c3ccc(Cl)c(Cl)c3)C2)cc(OC)c1OC` (stereo not shown) [Example 3, 1-[2-[3-(3,4-dichloro-phenyl)-1-(3,4,5-trimethoxy-benzoyl)-pyrrolidin-3-yl]-ethyl]-4-phenyl-piperidine-4-carboxylic acid amide], the “affinity for NK3 receptors (in words)” value on NK-3 receptor (guinea pig cerebral cortex) is “high affinity”.

Turning to `COc1cc(C(=O)N2CCC(CCN3CCC(C(N)=O)(c4ccccc4)CC3)(c3ccc(Cl)c(Cl)c3)C2)cc(OC)c1OC.Cl` (single isomer, unassigned; (+)) [Example 20A, (+)-1-[2-[3-(3,4-dichloro-phenyl)-1-(3,4,5-trimethoxy-benzoyl)-pyrrolidin-3-yl]-ethyl]-4-phenyl-piperidine-4-carboxylic acid amide hydrochloride], the dyspnea onset in the test with NK1 and NK2 receptors (1 mg/kg i.v.) came out at 331 ± 22 s; with NK1 and NK2 receptors (2.5 mg/kg i.v.), 426 ± 57 s; with NK1 and NK2 receptors (5 mg/kg i.v.), 597 ± 186 s; in the test on NK1 and NK2 receptors (10 mg/kg i.v.), 592 ± 71 s. Besides, the maximum pressure increase in the test on NK1 and NK2 receptors (1 mg/kg i.v.) turned out to be 1.0 ± 0.1 mmH2 O; in the test on NK1 and NK2 receptors (2.5 mg/kg i.v.), 0.6 ± 0.1 mmH2 O; in the test with NK1 and NK2 receptors (5 mg/kg i.v.) it was 0.8 ± 0.06 mmH2 O; with NK1 and NK2 receptors (10 mg/kg i.v.) it was 0.8 ± 0.1 mmH2 O. The “SRE number (coughs/gasps)” value was determined as 9.9 ± 2.7 in the test with NK1 and NK2 receptors (1 mg/kg i.v.); 8.3 ± 1.6 in the test on NK1 and NK2 receptors (2.5 mg/kg i.v.); 4.4 ± 1.9 with NK1 and NK2 receptors (5 mg/kg i.v.); 3.3 ± 1.1 in the test with NK1 and NK2 receptors (10 mg/kg i.v.). Further, the dyspnea incidence in the test on NK1 and NK2 receptors (1 mg/kg) came to 77.8%; in the test on NK1 and NK2 receptors (2.5 mg/kg), 100%; with NK1 and NK2 receptors (5 mg/kg) it was 44.4%; with NK1 and NK2 receptors (10 mg/kg), 55.6%. For the same molecule, the “effect on capsaicin-induced respiratory effects (in words)” value in the test with NK1 and NK2 receptors (intravenous) is given as “attenuate capsaicin-induced respiratory effects”.

On NK-3 receptor (NK-3 IC50, guinea pig cerebral cortex, 125I-eledoisin, mean of several experiments), `COc1cc(C(=O)N2CCC(CCN3CCC(C(N)=O)(c4ccccc4)CC3)(c3ccc(Cl)c(Cl)c3)C2)cc(OC)c1OC` (single isomer, unassigned; (+)) [Example 20, (+)-1-[2-[3-(3,4-dichloro-phenyl)-1-(3,4,5-trimethoxy-benzoyl)-pyrrolidin-3-yl]-ethyl]-4-phenylpiperidine-4-carboxylic acid amide] yielded an IC50 of 21 nM.

The record behind these values is US5635510A, “Substituted pyrrolidin-3-yl-alkyl-piperidines” (Merrell Pharmaceuticals Inc., priority 1994, dated 1997).
